According to paper PMC6742494 (ACS infectious diseases, 2016):
Converted amounts (≈) assume the structure as drawn. “And” between values parts separate entries of the source, which are not always exact repeats. Equal values may be shown once. Read-outs that look alike come from different tables or passages of the source.

Experiments:
PBS-starved H37Rv = type: cell-based, Mycobacterium tuberculosis
[1] = tested on: Mtb Beijing 26 (RIF-sensitive); assay: microbe, parasite or virus in culture; type: cell-based; settings: Mycobacterium tuberculosis
[2] = tested on: Mtb Haarlem 23 (RIF-sensitive); assay: microbe, parasite or virus in culture; type: cell-based; settings: Mycobacterium tuberculosis
Mtb T 21 (INH-sensitive) = assay: microbe, parasite or virus in culture; type: cell-based; settings: Mycobacterium tuberculosis
THP-1 cells = assay: cells; type: cell-based; settings: Homo sapiens, THP-1, 18 h, read-out: IC50 THP-1
Mtb H37Rv = assay: microbe, parasite or virus in culture; type: cell-based, Mycobacterium tuberculosis; settings: for MIC99: Mycobacterium tuberculosis, H37RV
in vitro [3] = settings: mouse, microsomes
[4] = human
[5] = mouse; for Clint: microsomes
in vitro [6] = settings: human, microsomes
M. bovis BCG [7] = type: cell-based, Mycobacterium bovis
M. smegmatis mc^2155 [8] = settings: cited from earlier work
Pseudomonas aeruginosa = assay: microbe, parasite or virus in culture; type: cell-based
M. smegmatis mc^2155 [9] = assay: microbe, parasite or virus in culture; type: cell-based, Mycobacterium smegmatis; settings: Mycolicibacterium smegmatis
M. bovis BCG [10] = type: cell-based, Mycobacterium bovis; remark: listed apart in the source
M. smegmatis mc^2155 [11] = type: cell-based, Mycobacterium smegmatis
in vitro [12] = settings: human, hepatocytes
M. smegmatis mc^2155 [13] = type: cell-based, Mycobacterium smegmatis; settings: pH 5.5
[14] = tested on: normal human foreskin fibroblast (HFF) cells; assay: cells; type: cell-based; settings: 48 h, read-out: IC50 HFF
M. bovis BCG [15] = type: cell-based, Mycobacterium bovis; remark: listed apart in the source
Escherichia coli = assay: microbe, parasite or virus in culture; type: cell-based
Staphylococcus aureus = assay: microbe, parasite or virus in culture; type: cell-based
Bacillus subtilis = assay: microbe, parasite or virus in culture; type: cell-based
[16] = tested on: intracellular Mtb H37Rv in THP-1 cells; type: cell-based, Mycobacterium tuberculosis
M. bovis BCG [17] = assay: microbe, parasite or virus in culture; type: cell-based; settings: Mycobacterium tuberculosis variant bovis BCG

SMILES | sensitivity of non-replicating Mtb (PBS-starved H37Rv) | MIC [1] [µg/mL] | MIC [2] [µg/mL] | MIC (Mtb T 21 (INH-sensitive)) [µg/mL] | IC50 (THP-1 cells) [µg/mL] | half-life (in vitro [3]) [min] | Predicted EH [4] | Predicted EH [5] | Clint [5] [mL/min] | half-life (in vitro [6]) [min] | MIC99 (Mtb H37Rv; 120 h, read-out: MIC (MIC99)) [µg/mL] | other results
NNC(=O)c1ccncc1 [INH, isoniazid] | tolerant | 0.025 (≈ 0.182 µM) | 0.025 (≈ 0.182 µM) | 0.05 (≈ 0.365 µM) | 7000 (≈ 51000 µM) |  |  |  |  |  |  | 1×MIC (in vitro MIC) (Mtb H37Rv): 0.05 µg/mL
Cc1ncc2n1-c1ccc(Cl)cc1C(c1ccccc1F)=NC2 [Midazolam, midazolam] |  |  |  |  |  | 2.41 | 0.920 | 0.924 | 1130 | 3.35 |  | Clint ([4]; microsomes): 239 mL/min
CC(C)=CCC/C(C)=C/CNCCNC1C2CC3CC(C2)CC1C3 (centres unmarked) [SQ109] |  |  |  |  |  | 2.44 | 0.929 | 0.926 | 1118 | 2.97 | 1.56 | effect on ΔΨ (M. bovis BCG [7]): rapidly deplete ΔΨ; effect on ΔΨ and ΔpH (M. smegmatis mc^2155 [8]): rapidly depleted both the transmembrane potential (ΔΨ) and the chemical proton gradient (ΔpH); MIC (MIC99) (Mtb H37Rv): 1.6 µg/mL (≈ 4.84 µM)
CO[C@H]1/C=C/O[C@@]2(C)Oc3c(C)c(O)c4c(O)c(c(/C=N/N5CCN(C)CC5)c(O)c4c3C2=O)NC(=O)/C(C)=C\C=C\[C@H](C)[C@H](O)[C@@H](C)[C@@H](O)[C@@H](C)[C@H](OC(C)=O)[C@@H]1C [RIF, rifampicin] | tolerant | 0.0125 (≈ 0.0152 µM) | 0.0125 (≈ 0.0152 µM) | 0.0125 (≈ 0.0152 µM) | 240 (≈ 292 µM) |  |  |  |  |  |  | 1×MIC (in vitro MIC) (Mtb H37Rv): 0.025 µg/mL
FC(F)(F)Oc1ccc(Oc2ccc(CNCCNC3C4CC5CC(C4)CC3C5)cc2)cc1 (centres unmarked) [Compound 8, N^1-adamantan-2-yl-N^2-(4-(4-(trifluoro-methoxy)phenoxy)benzyl)ethane-1,2-diamine] | sensitive | 1.2 (≈ 2.61 µM) | 1.2 (≈ 2.61 µM) | 0.58 (≈ 1.26 µM) | 4.4 (≈ 9.55 µM) | 24.1 | 0.144 | 0.557 | 113 | 231 | 1.2 | IC50 (Pseudomonas aeruginosa): 12.5 µg/mL (≈ 27.1 µM); MIC (M. smegmatis mc^2155 [9]): 9.21 µg/mL and 20 µM; effect on intracellular ATP (M. bovis BCG [10]): reduces intracellular ATP in a dose-dependent manner; effect on ΔΨ (red / green fluorescence ratio of DiOC2) (M. smegmatis mc^2155 [11]): rapid depletion of ΔΨ; half-life (in vitro [12]): 190 min; reduction in viability of non-replicating Mtb (PBS-starved H37Rv): 3 log; intrabacterial pH (M. smegmatis mc^2155 [13]): ~7; IC50 [14]: 16.1 µg/mL (≈ 35 µM); effect on ΔpH (M. bovis BCG [15]): None of the concentrations tested reduced ΔpH; IC50 (Escherichia coli): 6.25 µg/mL (≈ 13.6 µM); IC50 (Staphylococcus aureus): 6.25 µg/mL (≈ 13.6 µM); IC50 (Bacillus subtilis): 6.25 µg/mL (≈ 13.6 µM); reduction in bacterial cfu compared to untreated infected macrophages [16]: two-log reduction; MIC (M. bovis BCG [17]): 0.575 µg/mL and 1.25 µM; MIC99 (Mtb H37Rv): 2.5 µM
CC[C@@H](CO)NCCN[C@@H](CC)CO [EMB, ethambutol] | tolerant | 1 (≈ 4.89 µM) | 1 (≈ 4.89 µM) | 0.5 (≈ 2.45 µM) |  |  |  |  |  |  | 2 | 
N#CC(C#N)=NNc1cccc(Cl)c1 [CCCP, carbonyl cyanide m-chlorophenylhydrazone] |  |  |  |  |  |  |  |  |  |  |  | intrabacterial pH (M. smegmatis mc^2155 [13]): 5.5
